Broadly, the EC50 is the concentration at which the effect is half-maximal.

For one test, the system named is HIV-1 K103N-L100I mutant. In words: microbe, parasite or virus in culture. To be noted: Human immunodeficiency virus 1, HeLa, read-out: EC50 mutant K103N-L100I, mutant K103N-L100I. The class given is cell-based, human immunodeficiency virus type 1 (HIV-1).
The subject of a further test is wild type HIV-1. In words: microbe, parasite or virus in culture. In kind it is cell-based, human immunodeficiency virus type 1 (HIV-1). To be noted: Human immunodeficiency virus 1, Hela-JC53.

Take `Cc1cc(-c2cccc(S(N)(=O)=O)c2)cc(C)c1Oc1nc(Nc2ccc(C#N)cc2)nc2ccn(C)c12` [Example 71, 4′-(2-(4-cyanophenylamino)-5-methyl-5H-pyrrolo[3,2-d]pyrimidin-4-yloxy)-3′,5′-dimethylbiphenyl-3-sulfonamide]: the EC50 in the test with HIV-1 K103N-L100I mutant was more than 0.01 µM. Take `Cc1cc(-c2ccc(C#N)nc2)cc(C)c1Oc1nc(Nc2ccc(C#N)cc2)nc2ccn(C)c12` [Example 84, 5-(4-(2-(4-cyanophenylamino)-5-methyl-5H-pyrrolo[3,2-d]pyrimidin-4-yloxy)-3,5-dimethyl-phenyl)picolinonitrile]: the EC50 in the test with wild type HIV-1 and with HIV-1 K103N-L100I mutant was 0.001 to 0.01 µM in each case. The molecule `Cc1cc(-c2ccc(C(=O)N3CCCC3)cc2)cc(C)c1Oc1nc(Nc2ccc(C#N)cc2)nc2ccn(C)c12` [Example 93, 4-(4-(3,5-dimethyl-4′-(pyrrolidine-1-carbonyl)biphenyl-4-yloxy)-5-methyl-5H-pyrrolo[3,2-d]pyrimidin-2-ylamino) benzonitrile] displayed a half-maximal effective concentration (EC50) in the test on wild type HIV-1 of more than 0.01 µM.

Consider `Cc1cc(-c2ccncc2Cl)cc(C)c1Oc1nc(Nc2ccc(C#N)cc2)nc2ccn(C)c12` [Example 11, 4-(4-(4-(3-Chloropyridin-4-yl)-2,6-dimethylphenoxy)-5-methyl-5H-pyrrolo[3,2-d]pyrimidin-2-ylamino) benzonitrile], for which the EC50 in the test on wild type HIV-1 and in the test on HIV-1 K103N-L100I mutant was less than 0.001 µM each time.

For the molecule `Cc1cc(-c2ccncc2)cc(C)c1Nc1nc(Nc2ccc(C#N)cc2)nc2ccn(C)c12` [Example 19, 4-(4-(2,6-Dimethyl-4-(pyridin-4-yl)phenylamino)-5-methyl-5H-pyrrolo[3,2-d]pyrimidin-2-ylamino)benzonitrile], the EC50 was less than 0.001 µM in the test on wild type HIV-1 and 0.001 to 0.01 µM in the test on HIV-1 K103N-L100I mutant.

As for `Cc1cc(-c2ccc(C(N)=O)nc2)cc(C)c1Oc1nc(Nc2ccc(C#N)cc2)nc2c1ncn2C` [Example 119, 5-(4-(2-(4-cyanophenylamino)-9-methyl-9H-purin-6-yloxy)-3,5-dimethylphenyl)picolinamide], the 50% effective concentration (EC50) was less than 0.001 µM in the test with wild type HIV-1 and more than 0.01 µM in the test on HIV-1 K103N-L100I mutant.

In the case of `Cc1cc(-c2ccc(C(N)=O)cn2)cc(C)c1Oc1nc(Nc2ccc(C#N)cc2)nc2[nH]cnc12` [Example 126, 6-(4-(2-(4-cyanophenylamino)-9H-purin-6-yloxy)-3,5-dimethylphenyl)nicotinamide], in the test with wild type HIV-1, the concentration giving a half-maximal response (EC50) lay in the range of 0.001 to 0.01 µM.

In the case of `Cc1cc(-c2ccnn2C)cc(C)c1Oc1nc(Nc2ccc(C#N)cc2)nc2nc[nH]c12` [Example 47, 4-(6-(2,6-Dimethyl-4-(1-methyl-1H-pyrazol-5-yl)phenoxy)-7H-purin-2-ylamino)benzonitrile], the results for the concentration giving a half-maximal response (EC50) with wild type HIV-1 and in the test on HIV-1 K103N-L100I mutant were 0.001 to 0.01 µM and more than 0.01 µM, respectively. In the same order, the values of `Cc1cc(-c2cccc3ncccc23)cc(C)c1Oc1nc(Nc2ccc(C#N)cc2)nc2ccn(C)c12` [Example 38, 4-(4-(2,6-Dimethyl-4-(quinolin-5-yl)phenoxy)-5-methyl-5H-pyrrolo[3,2-d]pyrimidin-2-ylamino) benzonitrile] are 0.001 to 0.01 µM and 0.001 to 0.01 µM. The matching figures for `Cc1cc(-c2ccc(C(=O)O)cc2)cc(C)c1Oc1nc(Nc2ccc(C#N)cc2)nc2ncn(C)c12` [Example 110, 4′-(2-(4-Cyanophenylamino)-7-methyl-7H-purin-6-yloxy)-3′,5′-dimethylbiphenyl-4-carboxylic acid]: more than 0.01 µM and more than 0.01 µM. In the same order, the values of `Cc1cc(-c2ccsc2C#N)cc(C)c1Oc1nc(Nc2ccc(C#N)cc2)nc2ccn(C)c12` [Example 34, 3-(4-(2-(4-Cyanophenylamino)-5-methyl-5H-pyrrolo [3,2-d]pyrimidin-4-yloxy)-3,5-dimethylphenyl) thiophene-2-carbonitrile] are 0.001 to 0.01 µM and 0.001 to 0.01 µM.

In the case of `Cc1cc(-c2ccc(C(N)=O)nc2)cc(C)c1Oc1nc(Nc2ccc(C#N)cc2)nc2[nH]cnc12` [Example 129, 5-(4-(2-(4-cyanophenylamino)-9H-purin-6-yloxy)-3,5-dimethylphenyl)picolinamide], the EC50 was 0.001 to 0.01 µM with wild type HIV-1 and more than 0.01 µM in the test on HIV-1 K103N-L100I mutant.

For the molecule `Cc1cc(-c2ccc(C(N)=O)cc2F)cc(C)c1Oc1nc(Nc2ccc(C#N)cc2)nc2ncn(C)c12` [Example 55, 4′-(2-(4-Cyanophenylamino)-7-methyl-7H-purin-6-yloxy)-2-fluoro-3′,5′-dimethylbiphenyl-4-carboxamide], the 50% effective concentration (EC50) in the test with wild type HIV-1 and in the test on HIV-1 K103N-L100I mutant was 0.001 to 0.01 µM in each case.

For `Cc1cc(-c2ccc3nonc3c2)cc(C)c1Oc1nc(Nc2ccc(C#N)cc2)nc2ccn(C)c12` [Example 26, 4-(4-(4-(Benzo-[c][1,2,5]oxadiazol-5-yl)-2,6-dimethylphenoxy)-5-methyl-5H-pyrrolo[3,2-d]pyrimidin-2-ylamino) benzonitrile], the half-maximal effective concentration (EC50) with wild type HIV-1 and with HIV-1 K103N-L100I mutant was 0.001 to 0.01 µM in each case. Regarding `COc1c(F)cc(F)cc1-c1cc(C)c(Oc2nc(Nc3ccc(C#N)cc3)nc3ccn(C)c23)c(C)c1` [Example 67, 4-(4-(3′,5′-difluoro-2′-methoxy-3,5-dimethylbiphenyl-4-yloxy)-5-methyl-5H-pyrrolo[3,2-d]pyrimidin-2-ylamino) benzonitrile], the results for the EC50 in the test with wild type HIV-1 and in the test on HIV-1 K103N-L100I mutant were less than 0.001 µM and more than 0.01 µM, respectively. In the same order, the values of `Cc1cc(-c2cc(F)cc(F)c2)cc(C)c1Oc1nc(Nc2ccc(C#N)cc2)nc2ccn(C)c12` [Example 65, 4-(4-(3′,5′-difluoro-3,5-dimethylbiphenyl-4-yloxy)-5-methyl-5H-pyrrolo[3,2-d]pyrimidin-2-ylamino) benzonitrile] are less than 0.001 µM and more than 0.01 µM.

`Cc1cc(-c2ccc(C#N)cc2)cc(C)c1Oc1nc(Nc2ccc(C#N)cc2)nc2ccn(C)c12` [Example 44, 4′-(2-(4-Cyanophenylamino)-5-methyl-5H-pyrrolo[3,2-d]pyrimidin-4-yloxy)-3′,5′-dimethylbiphenyl-4-carbonitrile]: the concentration for a half-maximal effect (EC50) in the test with wild type HIV-1 and with HIV-1 K103N-L100I mutant was 0.001 to 0.01 µM throughout.

In the case of `Cn1cnc2c(Oc3c(Cl)cc(-c4ccc(C(N)=O)cc4)cc3Cl)nc(Nc3ccc(C#N)cc3)nc21` [Example 114, 3′,5′-dichloro-4′-(2-(4-cyanophenylamino)-9-methyl-9H-purin-6-yloxy)biphenyl-4-carboxamide], the values for the EC50 in the test on wild type HIV-1 and with HIV-1 K103N-L100I mutant were less than 0.001 µM and more than 0.01 µM, respectively. The matching figures for `Cc1cc(-c2cnccc2C#N)cc(C)c1Oc1nc(Nc2ccc(C#N)cc2)nc2ccn(C)c12` [Example 64, 3-(4-(2-(4-cyanophenylamino)-5-methyl-5H-pyrrolo[3,2-d]pyrimidin-4-yloxy)-3,5-dimethylphenyl) isonicotinonitrile]: less than 0.001 µM and less than 0.001 µM. The matching figures for `Cc1cc(-c2cnc(C#N)nc2)cc(C)c1Oc1nc(Nc2ccc(C#N)cc2)nc2ccn(C)c12` [Example 30, 5-(4-(2-(4-Cyanophenylamino)-5-methyl-5H-pyrrolo[3,2-d]pyrimidin-4-yloxy)-3,5-dimethylphenyl)pyrimidine-2-carbonitrile]: less than 0.001 µM and less than 0.001 µM.

As for `Cc1cc(-c2cc(F)c(F)c(F)c2)cc(C)c1Oc1nc(Nc2ccc(C#N)cc2)nc2ccn(C)c12` [Example 66], the values for the EC50 with wild type HIV-1 and in the test on HIV-1 K103N-L100I mutant were less than 0.001 µM and 0.001 to 0.01 µM, respectively.

On to `Cc1cc(-c2ccncc2)ccc1Oc1nc(Nc2ccc(C#N)cc2)nc2nc[nH]c12` [Example 98, 4-(6-(2-Methyl-4-(pyridin-4-yl)phenoxy)-7H-purin-2-ylamino)benzonitrile], for which the 50% effective concentration (EC50) with wild type HIV-1 is less than 0.001 µM; in the test on HIV-1 K103N-L100I mutant, more than 0.01 µM. The matching figures for `COc1cnccc1-c1cc(C)c(Oc2nc(Nc3ccc(C#N)cc3)nc3ccn(C)c23)c(C)c1` [Example 9, 4-(4-(4-(3-Methoxypyridin-4-yl)-2,6-dimethylphenoxy)-5-methyl-5H-pyrrolo[3,2-d]pyrimidin-2-ylamino) benzonitrile]: 0.001 to 0.01 µM and 0.001 to 0.01 µM. The matching figures for `Cc1cc(-c2ccc(F)cc2)cc(C)c1Oc1nc(Nc2ccc(C#N)cc2)nc2ccn(C)c12` [Example 62, 4-(4-(4′-fluoro-3,5-dimethylbiphenyl-4-yloxy)-5-methyl-5H-pyrrolo[3,2-d]pyrimidin-2-ylamino) benzonitrile]: 0.001 to 0.01 µM and more than 0.01 µM. Regarding `COc1cccc(C#N)c1-c1cc(C)c(Oc2nc(Nc3ccc(C#N)cc3)nc3ccn(C)c23)c(C)c1` [Example 83, 4′-(2-(4-cyanophenylamino)-5-methyl-5H-pyrrolo[3,2-d]pyrimidin-4-yloxy)-6-methoxy-3′,5′-dimethylbiphenyl-2-carbonitrile], in the test with wild type HIV-1, the EC50 is more than 0.01 µM. The same measure, in the same setting: the value for `Cc1cc(-c2ccc(C(=O)O)cn2)cc(C)c1Oc1nc(Nc2ccc(C#N)cc2)nc2[nH]cnc12` [Example 121, 6-(4-(2-(4-cyanophenylamino)-9H-purin-6-yloxy)-3,5-dimethylphenyl)nicotinic acid] was more than 0.01 µM; that for `COc1ccc(-c2cc(C)c(Oc3nc(Nc4ccc(C#N)cc4)nc4ccn(C)c34)c(C)c2)cn1` [Example 82, 4-(4-(4-(6-methoxypyridin-3-yl)-2,6-dimethylphenoxy)-5-methyl-5H-pyrrolo[3,2-d]pyrimidin-2-ylamino) benzonitrile] was more than 0.01 µM; that for `Cc1cc(-c2ccc(C(=O)N3CCC(C(N)=O)C3)cn2)cc(C)c1Oc1nc(Nc2ccc(C#N)cc2)nc2[nH]cnc12` (stereo not drawn) [Example 122, 1-(6-(4-(2-(4-cyanophenylamino)-9H-purin-6-yloxy)-3,5-dimethylphenyl)nicotinoyl)pyrrolidine-3-carboxamide] was more than 0.01 µM. Consider `Cc1cc(-c2cnc(N(C)C)nc2)cc(C)c1Oc1nc(Nc2ccc(C#N)cc2)nc2ccn(C)c12` [Example 28], for which the EC50 with HIV-1 K103N-L100I mutant was more than 0.01 µM. In the case of `Cc1cc(-c2cnc(N)nc2)cc(C)c1Oc1nc(Nc2ccc(C#N)cc2)nc2ccn(C)c12` [Example 70, 4-(4-(4-(2-aminopyrimidin-5-yl)-2,6-dimethylbiphenoxy)-5-methyl-5H-pyrrolo[3,2-d]pyrimidin-2-ylamino) benzonitrile], in the test with HIV-1 K103N-L100I mutant, the EC50 was in the range of 0.001 to 0.01 µM.

The values above are taken from patent publication US8207178B2 (priority 2007, dated 2012).
